Data on two compounds can be found in US20250249013A1, “COMBINATION METABOLIC-EPIGENETIC TREATMENT FOR EARLY LUNG CANCER” (THE REGENTS OF THE UNIVERSITY OF CALIFORNIA, priority 2022, published 2025).

In one assay the test system is A549 cells. The assay can be described thus: αKG rescue in low glucose, western blot and RT-PCR. The class given is cell-based, human. To be noted: A549, 2 hours in low glucose, αKG. How it is done: (§1) Human lung cancer A549 (CCL-185) and NCI-H358 (CRL-5807) cells lines were purchased from American Type Culture Collection (ATCC, Manassas, VA). Cells were maintained in culture according to manufacturer protocol using Roswell Park Memorial Institute (RPMI) 1640 medium (Corning, Cat. #10-040CV) supplemented with 10% FBS and 5% 1× Pen-Strep and kept in 37° C. and 5% of CO2. Murine 2953A cell line was established in our lab from a KP lung tumor by tissue dissociation. This cell line was maintained in culture in Dulbecco's modified Eagle Medium (DMEM) medium (Corning, Cat. #10-017CV) with 5% FBS and 5% 1× Pen-Strep.
(§2) All experiments in cell lines were performed in biological triplicate. Cells were seeded at same confluence and grown for 5 days (and for some experiments overnight or up to 9 days or 30 days, as indicated in the figures and text) in different concentration of glucose: high (20 mM), low (1 mM) and for some experiments medium (5 mM), as indicated. We used mediums with glutamine and without glucose: RPMI (Corning Cat. #10-043CV) for A549 and NCI-H358 cells, DMEM (ThermoScientific Cat. #11566025) for 2953A cells, supplemented with 10% FBS, 5% of 1× Pen-Strep and complemented with D-Glucose to the desired final concentration, as indicated in the figures.
(§3) All αKG rescue experiments were conducted using 10 mM alpha-ketoglutarate (α-KG; Sigma) and α-Mannitol (Sigma) as osmotic control.
(§4) For total protein extraction, cells were harvested, washed twice with ice-cold PBS-EDTA (0.5 mm EDTA), lysed using RIPA buffer (50 mM Tris-HCl pH 7.6, 150 mM NaCl, 0.1% SDS, 0.5% C24H39NaO4, 1% NP-40, 2 mm EDTA, 50 mm NaF) for 15 min on ice and centrifuged at 13,000 rpm for 30 min at +4° C. The resulting protein extracts were quantified using BCA protein assay followed by analysis by SDS-PAGE and Western blotting.
(§5) Histones was extracted from A549, NCI-H358 and 2953A cell lines using the Histone extraction kit (Abcam) according to manufacturer instructions.
(§6) SDS-PAGE and Western blotting analyses were performed using standard protocols. For antibodies information, see Reagents and Tools Table. Western blot images were detected by iBright Imaging Systems (Thermo Fisher Scientific). The protein detected was normalized to Actin or H3 total antibodies, this last in case of histonic extract. Each immunodetection derived from the same membrane was performed with the same exposure times according to the manufacture's antibody guidelines and was cropped only for presentation purposes; this is indicated by a dotted line.
(§7) Total RNA was extracted from A549, NCI-H358 and 2953A by using TRI Reagent Solution (Applied Biosystem), according to manufacturer instruction. RNA concertation was assayed by Nanodrop 3000 spectrophotometer (Thermo Fisher Scientific). Then, 1 μg of RNA was treated with DNase I (Thermo Fisher Scientific) and used for cDNA preparation.
(§8) cDNA was prepared using 1 μg of RNA with SuperScript IV Reverse Transcriptase (Invitrogen). SYBR green-based RT-PCR kit (Biorad) was performed using human and mouse primers (See Table EV11). mRNA levels were normalized to GAPDH (ΔCt=Ctgene of interest-Ct GAPDH) and presented as relative mRNA expression (ΔΔCt=2-(ΔCtsample-ΔCtcontrol)). All primers were designed by NCBI Primer-BLAST and purchased from Integrated DNA Technologies.

The test system of the next assay is NCI-H358 cells. In words: αKG rescue in low glucose, western blot and RT-PCR. Format: cell-based, human. As to conditions: NCI-H358, 2 hours in low glucose, αKG. How it is done: as §1, §2, §3, §4, §5, §6, §7, §8
For assay [1], the system named is long non-coding RNA HIFAL. In words: Expression of HIFAL in low glucose with αKG. The class given is cell-based. As to conditions: cell line not stated (Fig. EV5F-G). How it is done:
as §3, §8

The test system of a further assay is MCF7. In words: αKG rescue of FoxA2 in low glucose, western blot. To be noted: MCF7 breast cancer cells, low glucose 5 days. The class given is cell-based, human. How it is done: (§9) For the glutamine deprivation experiment, A549 and NCI-H358 cell lines were also seeded and grown up to 5 days in DMEM without glutamine and glucose (Corning Cat. #17-207CV) and complemented with L-glutamine (GlutaMAX CTS, Gibco) to a final concentration of either 6 mM (high glutamine) or 2 mM (low glutamine) and D-Glucose to a final concentration of either 10 mM (high glucose) or 1 mM (low glucose). Finally, breast cancer (MCF7) and pancreatic cancer (PANC1) cell lines were purchased from ATCC and were seeded and grown up to 5 days in RPM11640 complemented with D-Glucose to a final concentration of either 20 mM or 1 mM.
as §3, §6

For a further assay, the system named is PANC1. The assay can be described thus: αKG rescue of FoxA2 in low glucose, western blot. As to conditions: PANC1 pancreas cancer cells, low glucose 5 days. The class given is cell-based, human. How it is done: as §9, §3, §6
The test system of assay [2] is KP mice carrying LUADs. The assay can be described thus: KP mice treated with empagliflozin for 6 weeks: lung histology (H&E) and IHC. The class given is in vivo, mouse. How it is done: (§10) Lung tumors were induced by intranasal administration of Adeno-Cre (purchased from University of Iowa Viral Vector Core) as previously described (Scafoglio et al., 2018), or by transthoracic injection of Adeno-Cre in KPluc mice. All treatment trials were performed 2 weeks after tumor induction, and the results of biological duplicates were pooled for statistical analysis. In all trials, mice were assigned to therapeutic groups so that there were no significant differences in baseline tumor burden, age, sex, or weight among the different groups.
In the trial for assessment of tumor differentiation by immunohistochemistry (FIG. 1A-E, 6L-M, and EV1A-C) lung tumors were induced by intranasal administration of Adeno-Cre. After tumor induction, mice (n=11 for placebo and 13 for empagliflozin group) were treated with either placebo (DMSO 5%, PEG 30%, Tween80 10%) or empagliflozin (10 mg/Kg/d by oral gavage) for 6 weeks and then sacrificed for lung collection and fixation in formalin.
For the GEMMs, the mouse lungs were collected and inflated with 10% formalin in phosphate-buffered saline. After 24 hours, formalin was replaced to 70% ethanol. All tissues were paraffin-embedded and sliced into […] sections in the Translational Pathology Core Laboratory (TPCL) at UCLA.
For IHC staining, the slides were deparaffinized by overnight incubation at 65° C., followed by rehydration by serial passages in xylenes (three washes of 5 min in 100% xylenes) and decreasing concentrations of ethanol (two washes in 100% ethanol, two washes in 95%, one wash in 80%, one wash in 70%, and one wash in water). Antigen retrieval was performed for 23 min in AR6 (pH 6.0) buffer.
Blocking was performed with 5% goat serum for 1 hour at room temperature, followed by incubation with primary antibodies overnight at 4° C. Incubation with biotin-labeled secondary antibody was performed at room temperature for 1 hour, followed by incubation with avidin-biotin peroxidase complex and ImmPACT 3,3′-diaminobenzidine (DAB). Counterstain was performed with Harris' haematoxylin diluted 1:5 in water, followed by […] step and mounting slide. After the staining, digital images of the slides were obtained with an Aperio ScanScope slide scanner (Leica Biosystems). The quantification was performed using the QPath software. Briefly, regions of interests were drawn blindly in each slide to include each tumor present in a whole-lung section, followed by cell detection and quantification of the DAB signal using a constant threshold for all samples in the same experiment. Staining intensity in each cell was classified as negative (0), weak (1), median (2), or strong (3). The results were expressed as H score.
QuPath (Bankhead et al, 2017) was used for signal quantification in IHC staining. It was expressed as H score. Kaplan-Meier curves were performed with Kaplan-Meir Plotter tool (Gyorffy, 2021), using the lung cancer section. For the selected genes only, the best probe was used. All dataset available were used as cohort. For Kaplan-Meier plot performed using multiple genes, the option “use mean expression of selected genes” was set.

Assay [3] concerns KP mice carrying LUADs. The assay can be described thus: KP mice treated with empagliflozin for 4 weeks: RT-PCR on lung tumors. Format: in vivo, mouse. As to conditions: vs placebo. How it is done: as §10
In the trial for assessment of tumor differentiation by RT-PCR (FIGS. 1F and 6C) mice (n=3) received intranasal AdenoCre and treatment with either placebo (0.5% hypromellose-methyl cellulose) or empagliflozin (10 mg/Kg/d by oral gavage) for 4 weeks, followed by tumor collection and RNA extraction. RT-PCR was performed in technical triplicates, yielding a total of 9 experimental points per group.
as §7, §8

Assay [4] concerns KP mice carrying LUADs. In words: KP mice treated with empagliflozin, ex vivo BLI, then tail vein re-injection of sorted tumor cells in syngeneic mice. Set-up: species or system mouse. How it is done:
For our studies on the investigation of cell aggressiveness due to the glucose deprivation, we used syngeneic FVB mice. Two experiments were performed, in biological duplicate.
In the second experiment (FIG. 2G-J), KP mice injected transthoracically with AdenoCre were treated for 3 weeks with either placebo (n=3) or empagliflozin (n=3), and sacrificed for lung collection. Tumors were identified in the murine lungs by ex vivo bioluminescence and dissociated. Tumor single cells were resuspended in cold PBS followed by magnetic beads sorting (Miltenyi Biotec) to isolate the Epcam-positive epithelial cells. Finally, sorted tumor cells were injected by tail vein inoculation (1,000,000 cells/mouse) into syngeneic mice (n=6 per group). Tumor burden was measured by bioluminescence until 13 weeks after inoculation.

In assay [5] the test system is KP mice carrying LUADs. The assay can be described thus: ELISA for H3K27me3 in KP tumors after empagliflozin. As to conditions: transthoracic AdenoCre, empagliflozin for 1 week, vs placebo. The class given is in vivo, mouse. How it is done: For the measurement of in vivo HeK27 trimethylation (FIG. 3B), mice (n=4 per group) received transthoracic adenoCre and were treated for 3 weeks with either placebo (0.5% hypromellose-methyl cellulose) or empagliflozin (10 mg/Kg/d by oral gavage) followed by lung collection and histone extraction for ELISA assay.
The levels of trimethylation on H3K27me3 in tumors treated with empaglifozin were detected by ELISA kits (Active Motif) according to the manufacturer's instructions. The experiment was carried out with 4 replicates for each group. After tumor collecting, histone extraction was performed.
We used H3K27me3 and H3 total antibodies for plate coating. The absorbance was detected by Varioskan Lux (Thermo Fisher Scientific). The H3K27me3 levels were normalized to H3 total and presented as optical densitometry (O. D.) 450 nm of a ratio of H3K27me3/H3.
(ELISA stands for enzyme-linked immunosorbent assay.)

Assay [6] has as its system KP mice carrying LUADs. The assay can be described thus: Combination treatment trial in KP mice, tumor burden by bioluminescence imaging. To be noted: 6 weeks from week 2, empagliflozin 10 mg/kg/d, tazemetostat 125 mg/kg/bid, oral gavage. The class given is in vivo, mouse. How it is done: as §10
In the combination treatment trial (FIG. 3F-G), mice received the first BLI measurement two weeks post-AdenoCre administration for measurement of the baseline tumor burden. Four therapeutic groups were established as follows: (i) Placebo (n=11), receiving oral gavage of vehicle (DMSO 5%, PEG 30%, Tween80 10%); (ii) SGLT2 inhibitor Empaglifozin (10 mg/Kg/d, n=13); (iii) EZH2 inhibitor Tazemetostat (125 mg/Kg/bid, n=10); (iiii) Empaglifozin and Tazemetosat (n=19). Each group received bi-daily administration by oral gavage.

Where [7] appears, read: empagliflozin 10 mg/kg/d, 6 weeks, vs placebo.
[8] abbreviates: KP tumors week 6, empagliflozin 4 weeks.

Regarding `O=C(O)CCC(=O)C(=O)O` [αKG, alpha-ketoglutarate], the “activation of HIF1α after short-time glucose deprivation, western blot” value in the assay with A549 cells and in the assay on NCI-H358 cells was “rescued” in each case. Besides, in assay [1], the “activation of HIFAL in low glucose” value was “completely rescued”. Further, the “low glucose-induced FoxA2 down-regulation, western blot” value in the assay on MCF7 and in the assay with PANC1 was “rescued” in each case.

Turning to `OC[C@H]1O[C@@H](c2ccc(Cl)c(Cc3ccc(O[C@H]4CCOC4)cc3)c2)[C@H](O)[C@@H](O)[C@@H]1O` [empagliflozin], the “differentiation of lung lesions, visual inspection of H&E staining” value with KP mice carrying LUADs [2] (empagliflozin 10 mg/kg/d oral gavage, week 2 to week 8 post-AdenoCre, vs placebo) is on record as “more poorly differentiated”. Further, the “clear cell component of tumors” value with KP mice carrying LUADs [2] (empagliflozin 10 mg/kg/d, 6 weeks, completely absent from placebo tumors) is listed as “some of the tumors in the empagliflozin group had a clear cell component”. Besides, in the assay with KP mice carrying LUADs [2] (setting [7]), the “E-cadherin IHC signal (H score)” value is on record as “significant down-regulation”; the “FoxA2 IHC signal (H score)” value is recorded as “significant reduction”; the “Ttf-1 IHC signal (H score)” value was “significant reduction”; the “micropapillary component of murine tumors, pathological quantification” value is “increasing”. Further, in the assay with KP mice carrying LUADs [2] (setting [7]), the “solid component of murine tumors, pathological quantification” value is “significantly reducing”. In the assay with KP mice carrying LUADs [3] (KP murine tumors, empagliflozin 4 weeks), the “HIF1α RNA levels, RT-PCR” value is on record as “significant up-regulation”. For the same compound, the “surfactant protein C (SpC) expression, qPCR” value in the assay on KP mice carrying LUADs [3] (KP tumors collected week 6 post-induction, empagliflozin 10 mg/kg/d 4 weeks) was “significant reduction”. In the assay with KP mice carrying LUADs [3] (setting [8]), the “FoxA2 expression, qPCR” value is “significant reduction”; the “FoxJ1 expression (ciliated cell marker), qPCR” value was “reduced expression”; the “HmgA2 expression, qPCR” value is “increase”; the “Pdpn expression (type I alveolar cell marker), qPCR” value was “reduced expression”. In addition, in the assay on KP mice carrying LUADs [3] (setting [8]), the “Scgb3A2 expression (Clara cell marker), qPCR” value is reported as “reduced expression” and the “Ttf1 expression, qPCR” value is recorded as “significant reduction”. In addition, in the assay with KP mice carrying LUADs [4] (KP mice, empagliflozin week 2 to week 5 after transthoracic AdenoCre, vs placebo), the “tumor burden, ex vivo BLI” value was “significantly reduced”. Also, the “tumors formed after re-injection of treated tumor cells in syngeneic mice, BLI” value in the assay with KP mice carrying LUADs [4] (same number of sorted epithelial cells by tail vein, BLI at week 13, vs placebo group) is on record as “formed larger tumors than the placebo group”. Besides, the “tri-methylation on H3K27 (H3K27me3 over total H3), ELISA” value with KP mice carrying LUADs [5] was “significant increase”. For the same compound, in the assay with KP mice carrying LUADs [6], the “tumor burden by bioluminescence imaging, compared with placebo” value is listed as “significantly reduced”.
